Entries after “also recorded” stand apart in the source; their conditions may differ.
Columns and labels:
Type in all cases: biochemical, barley
ALV001 [1] = target: T1, ALV001 (Hordeum vulgare, UniProt P25250); test: Stabilization of ALV001* in early postprandial gastric fluid by reducing agents; parameters: ALV001*(the active form of ALV001) is produced upon proteolytic cleavage of ALV001; made in house
Procedure: (§1) Frozen human postprandial gastric fluids were thawed and centrifuged at 21,000 g for 5 minutes to pellet insoluble material, and the supernatant was used for this example. Between 50 and 200 μl of gastric fluid were added to the wells of a 96-well plate and incubated at 37° C. When antioxidants were added, they were added at this step. […] At the specified sampling time, a 1.6 μl sample of gastric fluid was diluted in assay buffer to give a final volume of 280 μl, and the concentration was measured by a chromogenic activity assay using Z-Phe-Arg-p-nitroaniline (pNA) as the substrate. The method is based on the ability of pNA to absorb at 410 nm when released from the substrate. ALV001 is the proenzyme or zymogen for Endoprotease B (Isoform 2) that cleaves the C-terminal side of the arginine in the sequence Phe-Arg. Enzymatic cleavage and subsequent release of pNA may be monitored by the change in absorbance at 410 nm. To determine the reaction rate, the absorbance at 410 nm was measured every 10 seconds for 1 minute. The slope of the regression line divided by the enzyme concentration was the reported enzyme activity.
Target sequence in this assay (P25250 134-373): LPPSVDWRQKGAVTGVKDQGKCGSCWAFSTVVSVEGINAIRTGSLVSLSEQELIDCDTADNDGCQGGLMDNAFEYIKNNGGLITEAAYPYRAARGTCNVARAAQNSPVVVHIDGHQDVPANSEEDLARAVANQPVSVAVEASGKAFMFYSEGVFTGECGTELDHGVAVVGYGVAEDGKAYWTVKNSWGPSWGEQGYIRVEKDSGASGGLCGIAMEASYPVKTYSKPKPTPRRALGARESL

ALV001 [2] = target: T1, ALV001; test: Stabilization of ALV001 in ex vivo postprandial gastric fluid by added antioxidants/reducing/chelating agents (chromogenic activity); parameters: ALV001 is the proenzyme or zymogen for Endoprotease B (Isoform 2); made in house; conditions: for stability of ALV001 activity with agent added (FIG. 6): 15 minute postprandial gastric fluid, 37° C., 1.5-45 minutes; for stabilization (preservation of activity) of ALV001 in ex vivo gastric fluid: summary statement, concentration not given
Procedure: as §1
Target sequence in this assay (P25250 29-373 limits assumed): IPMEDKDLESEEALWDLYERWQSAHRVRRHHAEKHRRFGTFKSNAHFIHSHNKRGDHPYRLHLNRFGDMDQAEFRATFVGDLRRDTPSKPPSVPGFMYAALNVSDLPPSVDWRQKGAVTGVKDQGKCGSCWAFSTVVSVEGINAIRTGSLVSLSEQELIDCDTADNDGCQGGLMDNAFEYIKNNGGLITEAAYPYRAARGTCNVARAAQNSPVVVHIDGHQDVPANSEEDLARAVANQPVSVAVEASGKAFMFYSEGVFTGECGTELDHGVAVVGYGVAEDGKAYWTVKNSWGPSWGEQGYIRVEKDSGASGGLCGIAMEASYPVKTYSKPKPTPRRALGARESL
A control without MTG was also included.
Shown in FIG. 6, selected reducing agents were added at 5 mM to ex vivo postprandial gastric fluid that was obtained from a healthy volunteer 15 minutes after eating and was incubated at 37° C. The proenzyme ALV001 was added to the gastric fluid. Acetate buffer at pH 4.5 was used as a control, because ALV001 is fully activated under these conditions. Samples were taken to determine ALV001 activity after 1.5, 5, 10, 20, […].
Samples were taken at 1.5, 5, 10, 20, and 40 minutes.

ALV001 [3] = target: T1, ALV001; test: ALV001 activity under simulated postprandial gastric conditions with cysteine; parameters: ALV001 is the proenzyme or zymogen for Endoprotease B (Isoform 2); made in house; conditions: gluten-free meal chewed and spit into resting gastric fluid, ALV003 and varying levels of cysteine, simulated gastric acid secretion
Procedure: A gluten-free meal was chewed and spit into resting gastric fluid. ALV003 and varying levels of cysteine were added at time 0 and the stability of ALV001 activity was tested by monitoring chromogenic enzyme activity over time. Gastric acid secretion was simulated throughout the experiment.
A gluten-free meal was chewed and spit into resting gastric fluid. ALV003 and varying levels of cysteine were added at time 0, and the stability of ALV001 activity was measured by monitoring chromogenic enzyme activity over time. Gastric acid secretion was simulated throughout the experiment.
Target sequence in this assay (P25250 29-373 limits assumed): as above

ALV001 [4] = target: T1, ALV001; test: Stabilization of ALV001 in ex vivo postprandial gastric fluid by added antioxidants/reducing/chelating agents (chromogenic activity); parameters: ALV001 is the proenzyme or zymogen for Endoprotease B (Isoform 2); made in house; conditions: for stability of ALV001 in postprandial gastric fluid (FIG. 7): agent at 0.5 mM; for stabilization of ALV001 (FIG. 11): ALV001 at 0.12 mg/ml, 1.5-40 minutes
Target sequence in this assay (P25250 29-373 limits assumed): as above

ALV001 [5] = target: T1, ALV001; test: Reversal of loss of enzyme activity: ALV003 pre-incubated in 15 minute postprandial gastric fluid, then MTG added; parameters: ALV001*(the active form of ALV001) is produced upon proteolytic cleavage of ALV001; made in house; conditions: 50 mM MTG, approximately 20 minutes after addition to pre-incubated ALV003 in 15 minute postprandial gastric fluid
Target sequence in this assay (P25250 134-373): as the sequence (P25250 134-373) above

ALV001 [6] = target: T1, ALV001; test: Restoration of ALV001 activity by agents added after 15 minutes incubation in postprandial gastric fluid; parameters: ALV001 is the proenzyme or zymogen for Endoprotease B (Isoform 2); made in house; conditions: agent at 5 mM added after 15 minutes at 37° C. in postprandial gastric fluid; 1.5-40 minutes after addition
Procedure: ALV001 was added to postprandial gastric fluid and incubated for 15 minutes at 37° C. Reducing agents were added at 5 mM to the gastric fluid and then samples were taken to examine ALV001 activity at 1.5, 5, 10, 20, and 40 minutes after the addition of the reducing agents.
Target sequence in this assay (P25250 29-373 limits assumed): as the sequence (P25250 29-373 limits assumed) above

ALV001 [7] = target: T1, ALV001; test: ALV001 activity reconstituted in orange juice with or without sodium metabisulfite; parameters: ALV001 is the proenzyme or zymogen for Endoprotease B (Isoform 2); made in house; conditions: 3 mg/ml ALV001 in orange juice, 840 μM sodium metabisulfite
Procedure: 3 mg/ml ALV001 was reconstituted in orange juice with or without 840 μM sodium metabisulfite. Chromogenic enzyme activity was measured at the indicated timepoints to determine the relative amount of functional enzyme.
3 mg/ml ALV001 was reconstituted in orange juice with or without 840 μM sodium metabisulfite. Chromogenic enzyme activity was measured as described above, at the indicated timepoints, to determine the relative amount of functional enzyme, as shown in FIG. 13.
Target sequence in this assay (P25250 29-373 limits assumed): as above

SMILES | stabilization of ALV001* in early postprandial gastric fluid (ALV001 [1]) | stability of ALV001 activity with agent added (FIG. 6) (ALV001 [2]; agent at 5 mM) | stabilization (preservation of activity) of ALV001 in ex vivo gastric fluid (ALV001 [2]) | also measured
Cl.O=C(O)CCP(CCC(=O)O)CCC(=O)O [TCEP, tris(2-Carboxyethyl)phosphine hydrochloride] | demonstrated to stabilize ALV001* | – | – | –
N[C@@H](CS)C(=O)O [L-cysteine] | demonstrated to stabilize ALV001* | Substantial improvements in stability | – | stability of ALV001 activity under simulated postprandial gastric conditions (FIG. 14) (ALV001 [3]): stabilizes ALV001 activity
O=C1O[C@H]([C@@H](O)CO)C(O)=C1O [ascorbic acid] | did not stabilize the enzyme | rapidly inactivated | did not stabilize | –
OCC(O)CS (centres unmarked) [MTG, monothioglycerol] | – | – | – | loss of enzymatic activity of ALV001 (FIG. 4) (ALV001 [4]; 50 mM MTG, 15 minute postprandial gastric fluid): no loss; rate of loss of enzymatic activity of ALV001 (FIG. 4) (ALV001 [4]; MTG 0.01 to 50 mM, 15 minute postprandial gastric fluid): decreased with increasing MTG concentrations; restoration of enzymatic activity of ALV001* (FIG. 5) (ALV001 [5]): nearly full enzymatic activity was restored
O=S([O-])([O-])=S.[Na+].[Na+] [sodium thiosulfate] | demonstrated to stabilize ALV001* | – | – | stability of ALV001 in postprandial gastric fluid (FIG. 7) (ALV001 [4]): demonstrated to improve the stability of ALV001
O=S([O-])[O-].[Na+].[Na+] [sodium sulfite] | demonstrated to stabilize ALV001* | most effective stabilization | particularly effective in stabilizing ALV001 | concentration down to which the stabilizing effect persists (ALV001 [4]; postprandial gastric fluid (FIG. 8)): 0.05 mM; stabilization of ALV001 (FIG. 8) (ALV001 [4]; sodium sulfite time course, postprandial gastric fluid): particularly effective; restoration of ALV001 enzyme activity (ALV001 [6]): partially restored the enzyme activity
O=C(O)CCCC[C@@H]1CCSS1 (racemic) [lipoic acid] | demonstrated to stabilize ALV001* | – | – | stability of ALV001 in postprandial gastric fluid (FIG. 7) (ALV001 [2]; agent at 5 mM): demonstrated to improve the stability of ALV001
O[C@H](CS)[C@H](O)CS (racemic) [dithiothreitol] | demonstrated to stabilize ALV001* | – | – | –

Second part, led by results:

stabilization of ALV001* in early postprandial gastric fluid (ALV001 [1]) | SMILES | stability of ALV001 activity with agent added (FIG. 6) (ALV001 [2]; agent at 5 mM) | stabilization (preservation of activity) of ALV001 in ex vivo gastric fluid (ALV001 [2]) | also measured
demonstrated to stabilize ALV001* | N[C@@H](CCS)C(=O)O [homocysteine] | – | – | –
did not stabilize the enzyme | CSCC[C@H](N)C(=O)O [L-methionine] | – | did not stabilize | –
demonstrated to stabilize ALV001* | OCCS [2-mercaptoethanol] | – | – | –
demonstrated to stabilize ALV001* | CC(=O)N[C@@H](CS)C(=O)O [N-acetylcysteine] | Substantial improvements in stability | – | restoration of ALV001 enzyme activity (ALV001 [6]): partially restored the enzyme activity
demonstrated to stabilize ALV001* | O=S([O-])S(=O)(=O)[O-].[Na+].[Na+] [sodium metabisulfite] | – | particularly effective in stabilizing ALV001 | stabilization of ALV001 (FIG. 11) (ALV001 [4]; agent at 25 μM, postprandial gastric fluid): considerable stabilization; stability of ALV001 (ALV001 [4]; agent at 50 μM): improved stability of ALV001; stabilization of ALV001 (FIG. 11) (ALV001 [4]; agent at 50 μM, postprandial gastric fluid): best stabilization; stability of ALV001 in postprandial gastric fluid (FIG. 7) (ALV001 [4]): demonstrated to improve the stability of ALV001; stability of ALV001 activity in orange juice (FIG. 13) (ALV001 [7]): stabilizes ALV001 activity; also recorded: increased stability
